We go through 17 compounds from US20210181109A1 (FUJIFILM Corporation, priority 2018, published 2021).

Read-outs that look alike come from different tables or passages of the source.

The nature of data set [1]: NAC depletion percent, HPLC-fluorescence detection. The conditions noted are these: single substance, test substance solution 1 mmol/L, fluorescence method. The gist of the method:
(§1)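 NAC at 5 μmol/L in pH 8.0 phosphate buffer reacted with test substance (1 mmol/L stock in water, acetonitrile, acetone or 5% DMSO/acetonitrile) 24 h at 25 °C in the dark, n=3. Stopped with TFA (0.5% final); unreacted NAC quantified by HPLC, depletion percent calculated against blank without test substance.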

The nature of data set [2]: NAC depletion percent, HPLC-UV detection (281 nm). The note with it: single substance, test substance solution 1 mmol/L, Reference (UV method). In a few lines:
as §1

The nature of data set [3]: NAL depletion percent, HPLC-UV detection (281 nm). The note with it: single substance, test substance solution 1 mmol/L, Reference (UV method). In a few lines:
(§2)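 NAL (5 μmol/L, pH 10.2 phosphate buffer) reacted with test substance (1 mmol/L stock in water, acetonitrile, acetone or 5% DMSO/acetonitrile) for 24 h at 25 °C in the dark; stopped with TFA to 0.5%. Unreacted NAL quantified by HPLC (UV or fluorescence), n=3; depletion % relative to substance-free blank.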

Data set [4] can be described thus: NAL depletion percent, HPLC-fluorescence detection. The conditions noted are these: single substance, test substance solution 1 mmol/L, fluorescence method. In a few lines:
as §2

For data set [5] the following is noted: cited from earlier work.
A short description of data set [6]: Average score of NAC and NAL depletion and prediction of skin allergenicity, UV method. The conditions noted are these: for Average score: test substance solution 1 mmol/L. The gist of the method:
(§3)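 Score is the mean of NAC and NAL depletion percentages, rounded at the second decimal place. Test substances classed as allergenic (S) or non-allergenic (NS) from depletion of NAC, NAL, or their average score.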

Data set [7] in a line: Average score of NAC and NAL depletion and prediction of skin allergenicity, fluorescence method. The note with it: for Average score: test substance solution 1 mmol/L. In a few lines:
as §3

Where [8] appears, read: known values, LLNA-test-based classification, − for non-allergenic substances.
Where [9] appears, read: single substance, Reference (UV method), criterion average score […].
Setting [10] is: single substance, Reference (UV method).
The mark [11] stands for this setting: single substance, fluorescence method, criterion average score […].
The mark [12] stands for this setting: single substance, fluorescence method.

As for `O=c1c(-c2ccccc2)c1-c1ccccc1` [Diphenylcyclopropenone], the “NAC depletion (%)” value stood at 29.7% in data set [1] and 28.7% in data set [2]. Moreover, the “NAL depletion (%)” value in data set [3] was determined as 6.3%; in data set [4] it was 2.4%. The “EC3 (%)” value in data set [5] (setting [8]) was 0.0003%. Also, the Prediction result in data set [6] (setting [9]) and in data set [7] (setting [11]) was “S (S represents as being an allergenic substance)” in each case. Also, the Average score in data set [6] (setting [10]) is 17.5%; in data set [7] (setting [12]), 16.0%.

On to `CC(CC=O)CCCC(C)(C)O` (stereo not drawn) [Hydroxycitronellal], for which the figures for the “NAC depletion (%)” value in data set [1] and in data set [2] were 16.0% and 17.5%, respectively. Besides, the “NAL depletion (%)” value was found to be 1.5% in data set [3] and 0.0% in data set [4]. Besides, the “EC3 (%)” value in data set [5] (setting [8]) is 33%. The Prediction result in data set [6] (setting [9]) and in data set [7] (setting [11]) was “S (S represents as being an allergenic substance)” throughout. For the same compound, the Average score in data set [6] (setting [10]) is 9.5%; in data set [7] (setting [12]) it was 8.0%.

In the case of `CCCCCC(C=O)=Cc1ccccc1` [α-Amylcinnamaldehyde], the “NAC depletion (%)” value in data set [1] is recorded as 0.3%; in data set [2], 0.0%. Further, the “NAL depletion (%)” value in data set [3] is given as 1.6%; in data set [4] it was 0.4%. For the same compound, in data set [5] (setting [8]), the “EC3 (%)” value was 11%. The Prediction result in data set [6] (setting [9]) and in data set [7] (setting [11]) was “NS (NS represents as being a non-allergenic substance)” throughout. For the same compound, the Average score in data set [6] (setting [10]) is listed as 0.8%; in data set [7] (setting [12]), 0.3%.

`O=c1c(O)c(O)c1=O` [Squaric acid]: the figures for the “NAC depletion (%)” value in data set [1] and in data set [2] were 1.0% and 0.8%, respectively. Besides, the “NAL depletion (%)” value was 0.5% in data set [3] and 0.1% in data set [4]. The “EC3 (%)” value in data set [5] (in vivo) was 4.3%. Besides, the Average score in data set [6] (setting [10]) is given as 0.6%; in data set [7] (setting [12]) it was 0.5%.

As to Kathon CG, the “NAC depletion (%)” value in data set [1] and in data set [2] was 100.0% each time. For the same compound, the “NAL depletion (%)” value is −0.4% in data set [3] and 2.0% in data set [4]. For the same compound, the “EC3 (%)” value in data set [5] (in vivo) is 0.008%. Also, the Average score is listed as 49.8% in data set [6] (setting [10]) and 51.0% in data set [7] (setting [12]).

For the compound `O=CC=Cc1ccccc1` [Cinnamaldehyde], the entries for the “NAC depletion (%)” value in data set [1] and in data set [2] were 54.1% and 37.0%, respectively. For the same compound, the entries for the “NAL depletion (%)” value in data set [3] and in data set [4] were 13.1% and 12.8%, respectively. The “EC3 (%)” value in data set [5] (in vivo) was 3%. Moreover, the Average score in data set [6] (setting [10]) is 25.0%; in data set [7] (setting [12]) it was 33.4%.

On to `C=CCc1ccc(OC)cc1` [4-Allylanisole], for which the “NAC depletion (%)” value in data set [1] was 15.0%; in data set [2] it was 27.0%. Moreover, the “NAL depletion (%)” value in data set [3] is 3.9%; in data set [4] it was 0.7%. In addition, in data set [5] (setting [8]), the “EC3 (%)” value is listed as 18%. The Prediction result in data set [6] (setting [9]) and in data set [7] (setting [11]) was “S (S represents as being an allergenic substance)” throughout. The Average score was 15.4% in data set [6] (setting [10]) and 7.9% in data set [7] (setting [12]).

In the case of `CNc1ccc(O)cc1.CNc1ccc(O)cc1.O=S(=O)(O)O` [Metol], the “NAC depletion (%)” value in data set [1] and in data set [2] was 100.0% each time. Further, the “NAL depletion (%)” value came to 22.8% in data set [3] and 15.9% in data set [4]. Besides, in data set [5] (setting [8]), the “EC3 (%)” value is recorded as 0.8%. The Prediction result in data set [6] (setting [9]) and in data set [7] (setting [11]) was “S (S represents as being an allergenic substance)” in each case. The figures for the Average score in data set [6] (setting [10]) and in data set [7] (setting [12]) were 61.4% and 57.9%, respectively.

Consider `Cn1sc(Cl)cc1=O` [5-Chloro-methyl-4-isothiazolin-3-one], for which the “NAC depletion (%)” value in data set [1] and in data set [2] was 100.0% in each case. Besides, the entries for the “NAL depletion (%)” value in data set [3] and in data set [4] were 17.7% and 9.3%, respectively. The “EC3 (%)” value in data set [5] (setting [8]) is reported as 0.009%. Besides, the Prediction result in data set [6] (setting [9]) and in data set [7] (setting [11]) was “S (S represents as being an allergenic substance)” each time. Besides, the Average score in data set [6] (setting [10]) is recorded as 58.8%; in data set [7] (setting [12]), 54.7%.

Consider `NC1=CC(=Nc2ccc(N)cc2)C(N)=CC1=Nc1ccc(N)cc1` [Bandrowski's base], for which the “NAC depletion (%)” value in data set [1] and in data set [2] was 100.0% each time. In addition, the “NAL depletion (%)” value in data set [3] came out at 5.7%; in data set [4] it was 1.7%. The “EC3 (%)” value in data set [5] (setting [8]) is 0.008%. Besides, the Prediction result in data set [6] (setting [9]) and in data set [7] (setting [11]) was “S (S represents as being an allergenic substance)” in each case. In addition, the Average score in data set [6] (setting [10]) is 52.9%; in data set [7] (setting [12]), 50.8%.

Take `Cn1sccc1=O` [2-Methyl-2H-isothiazol-3-one]: the “NAC depletion (%)” value in data set [1] came to 98.5%; in data set [2], 94.0%. The “NAL depletion (%)” value in data set [3] is on record as 7.0%; in data set [4], 4.6%. Further, the “EC3 (%)” value in data set [5] (setting [8]) is reported as 1.9%. The Prediction result in data set [6] (setting [9]) and in data set [7] (setting [11]) was “S (S represents as being an allergenic substance)” throughout. Besides, the figures for the Average score in data set [6] (setting [10]) and in data set [7] (setting [12]) were 50.5% and 51.6%, respectively.

On to `O=C(O)c1ccc2c(c1)C(=O)OC2=O` [Trimellitic anhydride], for which the “NAC depletion (%)” value in data set [1] amounted to 0.8%; in data set [2] it was 1.9%. The “NAL depletion (%)” value is listed as 97.0% in data set [3] and 94.2% in data set [4]. In addition, the “EC3 (%)” value in data set [5] (setting [8]) is given as 0.6%. Further, the Prediction result in data set [6] (setting [9]) and in data set [7] (setting [11]) was “S (S represents as being an allergenic substance)” throughout. For the same compound, the values for the Average score in data set [6] (setting [10]) and in data set [7] (setting [12]) were 49.4% and 47.5%, respectively.

`CC(C=O)Cc1ccc(C(C)C)cc1` (stereo not drawn) [Cyclamen aldehyde]: the entries for the “NAC depletion (%)” value in data set [1] and in data set [2] were 12.2% and 3.1%, respectively. Besides, the “NAL depletion (%)” value turned out to be 1.7% in data set [3] and 0.0% in data set [4]. In data set [5] (setting [8]), the “EC3 (%)” value is 22%. For the same compound, the results for the Prediction result in data set [6] (setting [9]) and in data set [7] (setting [11]) were “NS (NS represents as being a non-allergenic substance)” and “S (S represents as being an allergenic substance)”, respectively. For the same compound, the values for the Average score in data set [6] (setting [10]) and in data set [7] (setting [12]) were 2.4% and 6.1%, respectively.

`O=c1[nH]sc2ccccc12` [1,2-Benzisothiazolin-3-one]: the entries for the “NAC depletion (%)” value in data set [1] and in data set [2] were 98.8% and 100.0%, respectively. Also, the entries for the “NAL depletion (%)” value in data set [3] and in data set [4] were 0.4% and 0.2%, respectively. The “EC3 (%)” value in data set [5] (in vivo) was 2.3%. Also, the Prediction result in data set [6] and in data set [7] was “S (key: S represents as being an allergenic substance; NS represents as being a non-allergenic substance)” throughout. Also, the figures for the Average score in data set [6] (setting [10]) and in data set [7] (setting [12]) were 50.2% and 49.5%, respectively.

`C=C(C)C1CC=C(C=O)CC1` (stereo not drawn) [Perillaldehyde]: the “NAC depletion (%)” value in data set [1] is given as 42.4%; in data set [2] it was 29.1%. The “NAL depletion (%)” value in data set [3] is on record as 18.5%; in data set [4], 7.1%. Besides, the “EC3 (%)” value in data set [5] (setting [8]) is recorded as 8.1%. In addition, the Prediction result in data set [6] (setting [9]) and in data set [7] (setting [11]) was “S (S represents as being an allergenic substance)” each time. Moreover, the values for the Average score in data set [6] (setting [10]) and in data set [7] (setting [12]) were 23.8% and 24.7%, respectively.

Consider `Sc1nc2ccccc2s1` [2-Mercaptobenzothiazole], for which the “NAC depletion (%)” value in data set [1] is reported as 65.5%; in data set [2] it was 56.6%. Besides, the “NAL depletion (%)” value is 0.3% in data set [3] and 0.0% in data set [4]. The “EC3 (%)” value in data set [5] (setting [8]) is reported as 1.7%. The Prediction result in data set [6] (setting [9]) and in data set [7] (setting [11]) was “S (S represents as being an allergenic substance)” in each case. Further, the Average score in data set [6] (setting [10]) is recorded as 28.4%; in data set [7] (setting [12]), 32.7%.

As for `CCCCCCC(C=O)=Cc1ccccc1` [α-Hexylcinnamaldehyde], the “NAC depletion (%)” value in data set [1] and in data set [2] was 0.0% throughout. The “NAL depletion (%)” value worked out at 1.1% in data set [3] and 0.0% in data set [4]. The “EC3 (%)” value in data set [5] (setting [8]) is 11%. For the same compound, the Prediction result in data set [6] (setting [9]) and in data set [7] (setting [11]) was “NS (NS represents as being a non-allergenic substance)” throughout. For the same compound, the Average score in data set [6] (setting [10]) is reported as 0.6%; in data set [7] (setting [12]), 0.0%.
